Legend:
[1] = molecular target: T1, ID1-E47 (Homo sapiens, UniProt P41134); assay: Immunoprecipitation of endogenous ID1 and E47 in HCT116 cells; type: cell-based; conditions: 60 μM, one hour
T1 construct: host or cells: HCT116
Protocol: Immunoprecipitation. Cells were lysed in NP40 lysis buffer (50 mM Tris-HCl, pH 7.5, 150 mM NaCl, 1 mM EDTA, 1% NP40, 1.5 mM Na3VO4, 50 mM sodium fluoride, 10 mM sodium pyrophosphate, 10 mM P-glycerolphosphate and EDTA free protease inhibitor cocktail (Roche)) or RIPA buffer (50 mM Tris-HCl, pH 7.5, 150 mM NaCl, 1 mM EDTA, 1% NP40, 0.5% Sodium Deoxycholate, 0.1% Sodium dodecyl sulfate, 1.5 mM Na3VO4, 50 mM sodium fluoride, 10 mM sodium pyrophosphate, 10 mM P-glycerolphosphate and EDTA free protease inhibitor cocktail (Roche)). Lysates were cleared by centrifuge at 15,000 rpm for 15 minutes at 4° C. For immunoprecipitation, cell lysates were incubated with primary antibody (FLAG M2 affinity gel, Sigma, F2426; ID1 (C-20), Santa Cruz, sc-488; E2A (N-649), Santa Cruz, sc-763) and protein G/A beads (Santa Cruz, sc-2003) at 4° C. overnight. Beads were washed with lysis buffer four times and eluted in 2×SDS sample buffer. Protein samples were separated by SDS-PAGE and transferred to a polyvinylidene fluoride (PVDF) membrane. Membranes were blocked in TBS containing 5% non-fat milk and 0.1% Tween20, and probed with primary antibodies. […]

[2] = 14-day toxicity study, i.p.; type: in vivo; conditions: 60 mg/kg bid i.p., 14 days
Protocol: Toxicity analyses. To assess for toxicity, female athymic nude mice (Envigo), age 6-8 weeks, were dosed i.p. with either a control vehicle (70% DMSO in water) or AGX51 at 60 mg/kg twice daily for 14 consecutive days. Mice were sacrificed 24 hours after the last test administration. Gross and complete necropsy, along with clinical pathology analysis was conducted on all mice. Clinical Chemistry parameters measured were: BUN, Creatine, ALP, ALT, AST, GGT, Bilirubin, Total Protein, Albumin, Globulin, Phosphorus, Glucose, Cholesterol, Phosphorus, Calcium, Sodium, Potassium, Chloride. Hematology parameters measured were: white blood cells (lymphocytes, Monocytes, Eosinophils, Basophils, Neutrophils), red blood cells, Hemoglobin, Hematocrit, MCV, MCH, MCHC, RDW, Platelets. Organs/Tissues analyzed were: Lung, heart, thymus, kidneys, liver, spleen, gall bladder, pancreas, duodenum, jejunum, ileum, cecum, colon, bone marrow, femur, tibia, sternum, brain, eyes, ears, nasal and oral cavities, teeth, mesenteric and tracheal lymph nodes.

[3] = tested on: DU145 cells; assay: Prostate cancer cell morphology, growth and death; type: cell-based
Protocol: Prostate cancer cell lines DU145 and PC3 (in 10% BCS) will be cultured in Ham's F12 (Gibco, Carlsbad, Calif.) medium containing 10% BCS (Hyclone, Logan, Utah) and appropriate antibiotics (pen/strep, fungizaone, and gentamycin (Invitrogen Inc., Carlsbad, Calif.). All cells will be cultured at 37° C. in a fully humidified atmosphere containing 5% CO2.
At 50% confluence, the cells will be treated with either 100 μM DMSO, AGX51, or a compound of the present technology (such as AGX-A). The cell morphology and growth will be monitored daily for 1 week by microscopy for changes in morphology or cell death. Apoptosis will be determined by measuring caspase 3 and caspase 7 activities using the Caspase-Glo 3/7 Assay system from Promega (Madison, Wis.).

T1 sequence (P41134 whole entry): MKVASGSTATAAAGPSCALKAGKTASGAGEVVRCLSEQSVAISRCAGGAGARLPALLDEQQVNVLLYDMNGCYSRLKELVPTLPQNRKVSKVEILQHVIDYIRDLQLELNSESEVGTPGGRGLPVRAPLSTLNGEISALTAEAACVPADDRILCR

In the case of CCC(=O)N(CCC(c1ccc2c(c1)OCO2)c1ccccc1OC)Cc1ccccc1 (racemic) [AGX51, N-(3-(benzo[d][1,3]dioxol-5-yl)-3-(2-methoxyphenyl)propyl)-N-benzylpropionamide], the “co-precipitated ID1/E47 proteins” value [1] is reported as “markedly reduced the levels of the co-precipitated proteins”, the “clinical chemistry parameters and hematology” value [2] is reported as “within normal limits” and the “gross necropsy and histopathological evaluation of all major organs” value [2] is reported as “No abnormal findings”. For the same molecule, the weight loss [2] was “no significant weight loss”, the DU145 cell death ([3]; after six days) was “lead to cell death” and the “effect on DU145 cells” value ([3]; after three days) was “pronounced effect on DU145 cells”.
